According to patent US20240327372A1, “PREPARATION OF PHENE[…] […] STEREOISOMERS THEREOF AND PRECURSORS THEREOF” (priority 2022, published 2024):
Where a name gives a salt, the structure may show the parent alone.

What was measured:
hKCNQ1/hminK = hKCNQ1/hminK (Homo sapiens (Human), UniProt P51787); experiment: hKCNQ1/hminK Potassium Channel Assay, Qube APC; format: cell-based; settings: KCNQ1/mink
Procedure: (§1) Electrophysiological assays were conducted to profile three compounds ((R)-methylone, (S)-methylone, or racemic methylone) for activities on the ion channel targets specified below using the Qube electrophysiological platform. Where presented, IC50 values were determined by a non-linear, least squares regression analysis. Reference standards were run as an integral part of each assay to ensure the validity of the results obtained.
(§2) Ion Channels tested were Eurofins Panel Part Number: CPROFullQB2DR Voltage-Gated Sodium: HEK-Nav1.5 (Peak), HEK-Nav1.5 (Late, Antagonist) Voltage-Gated Potassium: HEK-Kv4.3/KChIP2, CHO-hERG, CHO-KCNQ1/minK Voltage-Gated Calcium: HEK-Cav1.2 Inward-Rectifying Voltage-Gated Potassium: HEK-Kir2.1.
hKCNQ1/hminK Potassium Channel Assay—Qube APC After whole cell configuration is achieved, the cells are held at −80 mV. KCNQ1/minK currents are evoked by a 1000 ms pulse from −80 mV to 60 mV followed by a ramp from 60 mV to −80 mV over 115 ms with the outward peak currents measured upon depolarization of the cell membrane. This paradigm is delivered once every 15 s to monitor the current amplitude.

hKir2.1 = hKir2.1 (Homo sapiens (Human), UniProt P63252); format: cell-based
Procedure: as §1, §2
hKir2.1 Potassium Channel Assay—Qube APC After whole cell configuration is achieved, the cells are held at −30 mV. Kir2.1 currents are evoked by a single 500 ms pulse to −120 mV before returning to the holding potential of −30 mV. This paradigm is delivered once every 20 s to monitor the current amplitude.

hKv4.3/hKChIP2 = hKv4.3/hKChIP2 (Homo sapiens (Human), UniProt Q9UK17); experiment: hKv4.3/hKChIP2 Potassium Channel Assay, Qube APC; format: cell-based
Procedure: as §1, §2
hKv4.3/hKChIP2 Potassium Channel Assay—Qube APC After whole cell configuration is achieved, the cells are held at −80 mV. Onset and steady state block of hKv4.3 current is measured using a pulse pattern from −80 mV to 40 mV amplitude for a 110 ms duration, and finally a 100 ms ramp (1.2 V/s) to −80 mV. This paradigm is delivered once every 5 s to monitor the current amplitude.

[1] = Dynamic vapor sorption (DVS); format: physicochemical
Procedure: (§3) Two lots of methylone HCl samples were submitted to evaluate the stability of the solid forms under various humidity conditions. Dynamic vapor sorption (DVS) analysis was performed to evaluate the kinetic hygroscopicity and assess if variable humidity XRPD would be necessary, as well as to determine the appropriate humidity condition(s) for such XRPD analysis. Both pre- and post-DVS samples were analyzed by conventional XRPD for solid form confirmation or any potential form changes.
DVS analyses were carried out using a TA Instruments Q5000 Dynamic Vapor Sorption analyzer. The instrument was calibrated with standard weights and a sodium bromide standard for humidity. Approximately 12-13 mg of each powder sample was loaded into a metal-coated quartz pan for analysis. The samples were analyzed from 5 to 95% RH (adsorption cycle) and from 95 to 5% RH (desorption cycle) in 10% RH steps. The movement from one step to the next occurred either after satisfying the equilibrium criterion of 0.01% weight change in 5 minutes or, if the equilibrium criterion was not met, after 90 minutes. The percent weight change values were calculated using Microsoft EXCEL® 2016.

[2] = XRPD of pre- and post-DVS samples (form stability); format: physicochemical; settings: pre- versus post-DVS
Procedure: as §3
The XRPD patterns between the pre- and post-DVS samples were compared for lots 213220 and KRR-R&D-2022-II-58, respectively.
Each sample was prepared in a silicon low background holder using light manual pressure to keep the sample surface flat and level with the reference surface of the sample holder. The single crystal Si low background holder has a circular recess (10 mm diameter and about 0.2 mm depth) that holds the sample. The Rigaku Smart-Lab diffraction system used was configured for Bragg-Brentano reflection geometry using a line source X-ray beam. The Bragg-Brentano geometry was controlled by passive divergence and receiving slits with the sample itself acting as the focusing component for the optics.

hNav1.5 = hNav1.5 (Homo sapiens (Human), UniProt Q14524); experiment: hNav1.5 Sodium Channel Assay (peak), Qube APC; format: cell-based; settings: Nav1.5, Antagonist mode, test compound
Procedure: (§4) Where presented, IC50 values were determined by a non-linear, least squares regression analysis.
(§5) Recombinant HEK-293 cells stably transfected with human Nav1.5 cDNA, recombinant HEK293 cell line expressing the human Cav1.2 (L-type voltage gated calcium channel, hCav1.2 α1C/β2a/α2δ1, and recombinant CHO-K1 cells stably transfected with human hERG cDNA were used separately in each of these assays.
hNav1.5 Sodium Channel Assay—Qube APC Onset and steady state block of peak Nav1.5 current is measured using a pulse pattern, repeated every 5 sec, consisting of a hyperpolarizing pulse to −120 mV for a 200 ms duration, depolarization to −15 mV amplitude for a 40 ms duration, followed by step to 40 mV for 200 ms and finally a 100 ms ramp (1.2 V/s) to a holding potential of −80 mV. Peak current is measured during the step to −15 mV.

hNav1.5 Late Current = hNav1.5 Late Current (Homo sapiens (Human), UniProt Q14524); experiment: hNav1.5 Late Current Sodium Channel Assay, Qube APC; format: cell-based; settings: Nav1.5 Late Current, Antagonist mode, test compound
Procedure: as §1, §2
hNav1.5 Late Current Sodium Channel Assay—Qube APC Onset and steady state block of Late Nav1.5 current is measured using a pulse pattern, repeated every 5 sec, consisting of a hyperpolarizing pulse to −120 mV for a 200 ms duration, depolarization to −15 mV amplitude for a 40 ms duration, followed by step to 40 mV for 200 ms and finally a 100 ms ramp (1.2 V/s) to a holding potential of −80 mV. Late current is measured as charge current elicited during the ramp with 50 nM ATXII.

hCav1.2 = hCav1.2 (Homo sapiens (Human), UniProt Q13936); experiment: hCav1.2 (L-type) Calcium Channel Assay, Qube APC; format: cell-based; settings: Cav1.2, Antagonist mode, test compound
Procedure: as §4, §5
hCav1.2 (L-type) Calcium Channel Assay—Qube APC After whole cell configuration is achieved, the cells are held at −90 mV. Cav1.2 currents are evoked by a 50 ms pulse to −100 mV followed by a 200 ms pulse to +20 mV before returning to the holding potential of −90 mV. This paradigm is delivered three times every 60 s to monitor the current amplitude.

Chain of hKv4.3/hKChIP2 (Q9UK17 whole entry, looked up): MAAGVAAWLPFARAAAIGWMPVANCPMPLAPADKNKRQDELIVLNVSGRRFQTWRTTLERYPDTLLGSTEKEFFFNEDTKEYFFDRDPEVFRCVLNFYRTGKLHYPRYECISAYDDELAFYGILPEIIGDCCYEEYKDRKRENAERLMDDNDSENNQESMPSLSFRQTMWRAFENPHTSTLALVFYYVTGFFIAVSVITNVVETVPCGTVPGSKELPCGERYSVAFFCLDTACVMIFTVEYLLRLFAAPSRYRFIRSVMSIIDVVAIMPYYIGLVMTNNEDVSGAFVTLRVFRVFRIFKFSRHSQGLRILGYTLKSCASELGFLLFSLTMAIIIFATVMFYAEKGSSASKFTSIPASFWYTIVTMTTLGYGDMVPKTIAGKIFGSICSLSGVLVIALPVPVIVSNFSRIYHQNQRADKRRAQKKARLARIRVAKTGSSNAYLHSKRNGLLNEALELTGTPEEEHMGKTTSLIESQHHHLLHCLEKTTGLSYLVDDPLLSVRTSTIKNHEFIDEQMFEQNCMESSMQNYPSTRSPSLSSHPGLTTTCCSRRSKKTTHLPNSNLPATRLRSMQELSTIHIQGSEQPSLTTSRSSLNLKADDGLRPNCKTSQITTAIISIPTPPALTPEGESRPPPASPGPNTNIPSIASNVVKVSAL
Chain of hKv4.3/hKChIP2 (Q9NS61 whole entry partner, looked up): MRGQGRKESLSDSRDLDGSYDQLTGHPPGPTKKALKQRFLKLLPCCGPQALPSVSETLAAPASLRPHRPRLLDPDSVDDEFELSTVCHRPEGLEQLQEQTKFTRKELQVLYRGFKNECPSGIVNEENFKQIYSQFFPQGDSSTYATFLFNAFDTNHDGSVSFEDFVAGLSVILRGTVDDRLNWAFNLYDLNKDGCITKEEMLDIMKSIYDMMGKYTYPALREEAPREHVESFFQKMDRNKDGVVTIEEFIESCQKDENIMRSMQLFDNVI
Chain of hKir2.1 (P63252 whole entry): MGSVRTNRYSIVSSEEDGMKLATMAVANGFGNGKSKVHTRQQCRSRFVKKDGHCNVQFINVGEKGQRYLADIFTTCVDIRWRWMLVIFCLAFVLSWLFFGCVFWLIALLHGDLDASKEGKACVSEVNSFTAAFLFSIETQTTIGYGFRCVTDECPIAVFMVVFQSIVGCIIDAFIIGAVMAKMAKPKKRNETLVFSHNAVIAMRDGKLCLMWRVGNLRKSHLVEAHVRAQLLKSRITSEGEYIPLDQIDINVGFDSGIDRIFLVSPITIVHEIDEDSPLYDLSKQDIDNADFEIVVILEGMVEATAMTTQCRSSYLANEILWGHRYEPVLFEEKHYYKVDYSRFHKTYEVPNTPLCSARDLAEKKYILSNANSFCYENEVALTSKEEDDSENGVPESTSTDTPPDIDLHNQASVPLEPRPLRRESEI

## CCS(=O)(=O)N(C)[C@H]1c2cc(C#N)ccc2OC(C)(C)[C@@H]1O (racemic) [Chromanol 293B]
hKCNQ1/hminK; reference compound, read-out: Estimated IC50
  IC50: 45.3 µM

## [Ba+2].[Cl-].[Cl-] [Barium Chloride]
hKir2.1; Kir2.1, reference compound, read-out: Estimated IC50
  IC50: 14.4 µM

## O=C(NCC1CCCCN1)c1cc(OCC(F)(F)F)ccc1OCC(F)(F)F (centres unmarked) [Flecainide]
hKv4.3/hKChIP2; Kc4.3/ChIP2, reference compound, read-out: Estimated IC50
  IC50: 19.5 µM

## CNC(C)C(=O)c1ccc2c(c1)OCO2 (centres unmarked) [Lot 213220, methylone HCl]
[1]
  Hysteresis upon desorption: little to no hysteresis
[2]
  Form changes of post-DVS samples (XRPD): No form changes

## CNC(C)C(=O)c1ccc2c(c1)OCO2 (centres unmarked) [Methylone HCl, methylone HCl]
hKv4.3/hKChIP2; Kc4.3/ChIP2, Antagonist mode, test compound
  Estimated IC50: N/C (N/C indicates observed mean inhibition was <25%)
hNav1.5
  Estimated IC50: N/C (N/C indicates observed mean inhibition was <25%)
hKir2.1; Kir2.1, Antagonist mode, test compound
  Estimated IC50: N/C (N/C indicates observed mean inhibition was <25%)
hKCNQ1/hminK; Antagonist mode, test compound
  Estimated IC50: N/C (N/C indicates observed mean inhibition was <25%)
hNav1.5 Late Current
  Estimated IC50: N/C (N/C indicates observed mean inhibition was <25%)
hCav1.2
  Estimated IC50: N/C (N/C indicates observed mean inhibition was <25%)

## CNC(C)C(=O)c1ccc2c(c1)OCO2.Cl [lot KRR-R&D-2022-II-58, methylone HCl]
[1]
  Adsorbed water retained upon desorption: approximately 0.06%
  Hysteresis upon desorption: slight hysteresis
[2]
  Form changes of post-DVS samples (XRPD): No form changes
